Read-outs that look alike come from different tables or passages of the source.
Key:
Type in all cases: binding
PI3Kα = target: T1, PI3Kα (Homo sapiens, UniProt P42336); experiment: kinobeads assay, PI3K alpha (dot blot detection); details: Table 4, read-out: Inhibition values (IC50) PI3Ka
T1 construct: endogenous in cells; host or cells: Jurkat cells (ATCC TIB-152) lysate, the only lysate described

PI3Kβ = target: T2, PI3Kβ (Homo sapiens, UniProt P42338); experiment: kinobeads assay, PI3K beta (dot blot detection); details: Table 4, read-out: Inhibition values (IC50) PI3Kb
T2 construct: endogenous in cells; host or cells: Jurkat cells (ATCC TIB-152) lysate, the only lysate described
T2 sequence (P42338 whole entry): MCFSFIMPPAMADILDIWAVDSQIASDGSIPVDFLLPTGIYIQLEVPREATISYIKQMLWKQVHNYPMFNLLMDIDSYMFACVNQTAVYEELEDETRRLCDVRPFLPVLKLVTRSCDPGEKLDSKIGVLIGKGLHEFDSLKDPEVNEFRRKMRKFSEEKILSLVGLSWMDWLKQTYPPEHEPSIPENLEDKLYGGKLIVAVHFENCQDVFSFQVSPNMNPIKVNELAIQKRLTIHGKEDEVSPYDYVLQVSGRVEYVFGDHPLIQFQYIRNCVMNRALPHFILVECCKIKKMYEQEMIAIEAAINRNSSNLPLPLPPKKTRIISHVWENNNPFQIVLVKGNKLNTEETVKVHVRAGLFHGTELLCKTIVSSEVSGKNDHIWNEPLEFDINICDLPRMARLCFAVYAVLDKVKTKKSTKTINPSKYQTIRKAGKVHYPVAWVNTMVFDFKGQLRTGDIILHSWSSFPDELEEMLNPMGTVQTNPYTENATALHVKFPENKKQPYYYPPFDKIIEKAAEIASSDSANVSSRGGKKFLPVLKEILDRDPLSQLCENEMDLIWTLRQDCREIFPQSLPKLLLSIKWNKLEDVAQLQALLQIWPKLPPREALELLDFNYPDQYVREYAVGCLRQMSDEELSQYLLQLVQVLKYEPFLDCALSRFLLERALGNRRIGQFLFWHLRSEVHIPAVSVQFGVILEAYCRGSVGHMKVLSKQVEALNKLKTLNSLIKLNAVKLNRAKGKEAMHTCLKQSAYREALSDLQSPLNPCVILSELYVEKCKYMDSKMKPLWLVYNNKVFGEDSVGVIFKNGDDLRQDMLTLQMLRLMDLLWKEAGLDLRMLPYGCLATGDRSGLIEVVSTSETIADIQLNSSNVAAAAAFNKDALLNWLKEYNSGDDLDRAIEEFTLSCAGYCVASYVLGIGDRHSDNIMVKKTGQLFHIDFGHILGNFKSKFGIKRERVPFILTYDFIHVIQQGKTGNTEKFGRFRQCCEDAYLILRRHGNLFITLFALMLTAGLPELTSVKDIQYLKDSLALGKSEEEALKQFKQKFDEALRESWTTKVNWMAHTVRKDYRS
T2 sequence (P27986 whole entry partner): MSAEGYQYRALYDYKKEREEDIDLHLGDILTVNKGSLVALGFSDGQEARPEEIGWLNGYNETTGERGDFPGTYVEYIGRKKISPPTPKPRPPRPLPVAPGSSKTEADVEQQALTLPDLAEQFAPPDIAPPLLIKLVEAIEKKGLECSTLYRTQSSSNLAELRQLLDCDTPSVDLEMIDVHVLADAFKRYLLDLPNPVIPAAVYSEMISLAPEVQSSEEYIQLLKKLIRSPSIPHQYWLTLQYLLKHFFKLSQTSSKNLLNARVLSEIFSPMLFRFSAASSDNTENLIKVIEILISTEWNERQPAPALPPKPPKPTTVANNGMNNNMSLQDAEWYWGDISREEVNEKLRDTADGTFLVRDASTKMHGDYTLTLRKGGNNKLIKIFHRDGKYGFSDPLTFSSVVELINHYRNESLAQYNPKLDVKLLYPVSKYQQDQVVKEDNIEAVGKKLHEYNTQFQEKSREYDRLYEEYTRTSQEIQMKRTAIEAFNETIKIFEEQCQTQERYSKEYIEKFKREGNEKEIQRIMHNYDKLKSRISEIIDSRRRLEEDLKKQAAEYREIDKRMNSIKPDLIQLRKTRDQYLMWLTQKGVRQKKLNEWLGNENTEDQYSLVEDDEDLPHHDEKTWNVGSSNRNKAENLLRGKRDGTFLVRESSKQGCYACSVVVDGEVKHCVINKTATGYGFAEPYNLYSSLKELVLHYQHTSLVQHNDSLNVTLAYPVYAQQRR

PI3K delta (PI3Kd) = target: T3, PI3K delta (PI3Kd) (Homo sapiens, UniProt O00329); experiment: kinobeads assay, PI3K delta (dot blot detection)
T3 construct: endogenous in cells; host or cells: Jurkat cells (ATCC TIB-152, clone E6-1), lysate
T3 sequence (O00329 whole entry): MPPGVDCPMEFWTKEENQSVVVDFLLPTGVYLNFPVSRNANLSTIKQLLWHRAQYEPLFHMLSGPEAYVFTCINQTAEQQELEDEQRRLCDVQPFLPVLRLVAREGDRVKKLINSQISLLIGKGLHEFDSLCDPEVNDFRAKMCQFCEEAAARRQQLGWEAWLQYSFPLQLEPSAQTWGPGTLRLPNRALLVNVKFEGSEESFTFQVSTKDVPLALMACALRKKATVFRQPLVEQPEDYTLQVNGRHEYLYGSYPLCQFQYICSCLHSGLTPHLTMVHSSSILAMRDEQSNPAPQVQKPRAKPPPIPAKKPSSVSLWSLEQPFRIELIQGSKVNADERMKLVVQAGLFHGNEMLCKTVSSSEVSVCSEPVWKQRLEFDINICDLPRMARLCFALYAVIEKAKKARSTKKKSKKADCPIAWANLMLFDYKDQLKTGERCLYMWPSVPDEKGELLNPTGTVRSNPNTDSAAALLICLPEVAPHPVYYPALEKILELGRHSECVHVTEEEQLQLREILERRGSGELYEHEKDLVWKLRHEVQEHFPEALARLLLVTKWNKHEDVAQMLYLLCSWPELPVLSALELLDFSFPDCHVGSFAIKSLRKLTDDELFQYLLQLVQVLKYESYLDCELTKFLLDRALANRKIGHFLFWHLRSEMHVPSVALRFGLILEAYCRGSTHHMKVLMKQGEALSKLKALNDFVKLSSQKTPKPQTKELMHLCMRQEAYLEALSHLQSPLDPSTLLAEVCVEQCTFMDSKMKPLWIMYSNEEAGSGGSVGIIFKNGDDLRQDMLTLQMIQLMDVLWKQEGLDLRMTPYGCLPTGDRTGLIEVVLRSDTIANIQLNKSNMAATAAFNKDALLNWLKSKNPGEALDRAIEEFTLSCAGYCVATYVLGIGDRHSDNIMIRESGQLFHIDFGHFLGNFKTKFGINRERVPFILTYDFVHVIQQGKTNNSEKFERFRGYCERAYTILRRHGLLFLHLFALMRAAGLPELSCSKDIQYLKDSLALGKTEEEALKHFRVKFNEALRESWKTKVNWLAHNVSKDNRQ
T3 sequence (P27986 whole entry partner): as the sequence (P27986 whole entry partner) above
How it was run: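 Jurkat cell lysate (5 mg/mL protein) incubated 2 h in the cold with test compound (9-step 1:3 series) and immobilized phenylthiazole/phenylmorpholin-chromen ligand beads. Bead-bound kinases eluted, detected by specific antibody dot blot with infrared readout; IC50 from dose-response curves.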

[1] = Table 2, Jurkat cell lysate, read-out: Inhibition values (IC50) PI3Kd
[2] = Table 4, read-out: Inhibition values (IC50) PI3Kd

Measured: IC50

T1 sequence (P42336 whole entry): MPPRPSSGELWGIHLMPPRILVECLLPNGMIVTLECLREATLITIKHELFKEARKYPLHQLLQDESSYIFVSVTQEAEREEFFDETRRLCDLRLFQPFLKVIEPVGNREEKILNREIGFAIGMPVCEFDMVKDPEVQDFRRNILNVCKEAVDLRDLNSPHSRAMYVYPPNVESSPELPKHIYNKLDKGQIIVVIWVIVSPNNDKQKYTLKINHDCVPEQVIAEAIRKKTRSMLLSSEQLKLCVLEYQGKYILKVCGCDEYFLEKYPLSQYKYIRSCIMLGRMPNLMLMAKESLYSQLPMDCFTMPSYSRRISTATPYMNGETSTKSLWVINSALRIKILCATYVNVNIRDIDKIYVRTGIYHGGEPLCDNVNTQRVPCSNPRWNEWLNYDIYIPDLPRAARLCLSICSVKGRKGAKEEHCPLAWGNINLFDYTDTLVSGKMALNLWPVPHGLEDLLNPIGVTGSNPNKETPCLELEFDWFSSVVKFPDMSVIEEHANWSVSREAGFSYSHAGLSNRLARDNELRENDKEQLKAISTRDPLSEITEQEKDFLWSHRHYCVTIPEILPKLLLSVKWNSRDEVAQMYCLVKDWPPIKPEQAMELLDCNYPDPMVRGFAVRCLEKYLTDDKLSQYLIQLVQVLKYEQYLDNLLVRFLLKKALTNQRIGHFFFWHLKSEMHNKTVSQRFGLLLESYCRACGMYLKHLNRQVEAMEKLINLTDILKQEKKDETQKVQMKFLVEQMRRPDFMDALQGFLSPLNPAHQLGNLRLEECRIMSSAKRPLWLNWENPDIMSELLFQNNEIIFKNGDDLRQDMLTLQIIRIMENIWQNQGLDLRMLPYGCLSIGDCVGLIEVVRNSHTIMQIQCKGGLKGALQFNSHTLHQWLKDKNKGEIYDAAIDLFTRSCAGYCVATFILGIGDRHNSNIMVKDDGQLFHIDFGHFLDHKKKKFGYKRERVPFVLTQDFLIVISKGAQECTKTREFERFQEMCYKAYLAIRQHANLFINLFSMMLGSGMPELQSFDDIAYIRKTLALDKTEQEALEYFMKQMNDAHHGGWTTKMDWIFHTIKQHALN
T1 sequence (P27986 whole entry partner): as the sequence (P27986 whole entry partner) above

C[C@H]1COCCN1c1nc(-c2ccc(NC(=O)NCCCO)cc2)cc(-c2cc(F)ccc2S(C)(=O)=O)n1 [Example 64, (S)-1-(4-(6-(5-fluoro-2-(methylsulfonyl)phenyl)-2-(3-methylmorpholino)pyrimidin-4-yl)phenyl)-3-(3-hydroxypropyl)urea]
≥ 10 µM: PI3Kα | PI3Kβ | PI3K delta (PI3Kd); [1] | PI3K delta (PI3Kd); [2]

C[C@H]1COCCN1c1nc(-c2ccc(NC(=O)NC3CC3)cc2)cc(-c2cccnc2S(C)(=O)=O)n1 [Example 46, (S)-1-cyclopropyl-3-(4-(2-(3-methylmorpholino)-6-(2-(methylsulfonyl)pyridin-3-yl)pyrimidin-4-yl)phenyl)urea]
≥ 10 µM: PI3Kα | PI3Kβ | PI3K delta (PI3Kd); [1] | PI3K delta (PI3Kd); [2]

CS(=O)(=O)c1ccc(F)cc1-c1cc(-c2ccc(NC(=O)NCCO)cc2)nc(N2CCOCC2)n1 [Example 62, 1-(4-(6-(5-fluoro-2-(methylsulfonyl)phenyl)-2-morpholinopyrimidin-4-yl)phenyl)-3-(2-hydroxyethyl)urea]
≥ 10 µM: PI3Kα | PI3Kβ | PI3K delta (PI3Kd); [1] | PI3K delta (PI3Kd); [2]

C[C@H]1COCCN1c1nc(-c2ccc(NC(=O)NC3CC3)cc2)cc(-c2ccccc2S(C)(=O)=O)n1 [Example 4, (S)-1-cyclopropyl-3-(4-(2-(3-methylmorpholino)-6-(2-(methylsulfonyl)phenyl)pyrimidin-4-yl)phenyl)urea]
≥ 10 µM: PI3Kα | PI3Kβ | PI3K delta (PI3Kd); [1] | PI3K delta (PI3Kd); [2]

C[C@H]1COCCN1c1cc(-c2ccc(F)nc2)nc(-c2ccc(NC(=O)NC3CC3)cc2)n1 [Example 21, (S)-1-cyclopropyl-3-(4-(4-(6-fluoropyridin-3-yl)-6-(3-methylmorpholino)pyrimidin-2-yl)phenyl)urea]
≥ 10 µM: PI3Kα | PI3Kβ | PI3K delta (PI3Kd); [1] | PI3K delta (PI3Kd); [2]

C[C@H]1COCCN1c1nc(-c2ccc(NC(=O)N[C@H]3CCC[C@@H]3O)cc2)cc(-c2cc(F)ccc2S(C)(=O)=O)n1 [Example 76, 1-(4-(6-(5-fluoro-2-(methylsulfonyl)phenyl)-2-((S)-3-methylmorpholino)pyrimidin-4-yl)phenyl)-3-((1S,2S)-2-hydroxycyclopentyl)urea]
≥ 10 µM: PI3Kα | PI3Kβ | PI3K delta (PI3Kd); [2]

CCNC(=O)Nc1ccc(-c2cc(-c3ccccc3C#N)nc(N3CCOC[C@@H]3C)n2)cc1 [Example 8, (S)-1-(4-(6-(2-cyanophenyl)-2-(3-methylmorpholino)pyrimidin-4-yl)phenyl)-3-ethylurea]
≥ 10 µM: PI3K delta (PI3Kd); [1] | PI3K delta (PI3Kd); [2]

C[C@H]1COCCN1c1nc(-c2ccc(NC(=O)NCCO)cc2)cc(-c2cc(F)ccc2S(C)(=O)=O)n1 [Example 41, (S)-1-(4-(6-(5-fluoro-2-(methylsulfonyl)phenyl)-2-(3-methylmorpholino)pyrimidin-4-yl)phenyl)-3-(2-hydroxyethyl)urea]
≥ 10 µM: PI3Kα | PI3Kβ | PI3K delta (PI3Kd); [1] | PI3K delta (PI3Kd); [2]

C[C@H]1COCCN1c1cc(-c2cncc(F)c2)nc(-c2ccc(NC(=O)NC3CC3)cc2)n1 [Example 23, (S)-1-cyclopropyl-3-(4-(4-(5-fluoropyridin-3-yl)-6-(3-methylmorpholino)pyrimidin-2-yl)phenyl)urea]
≥ 10 µM: PI3Kα | PI3Kβ | PI3K delta (PI3Kd); [1] | PI3K delta (PI3Kd); [2]

C[C@H]1COCCN1c1nc(-c2ccc(NC(=O)NCCF)cc2)cc(-c2cc(F)ccc2S(C)(=O)=O)n1 [Example 44, (S)-1-(4-(6-(5-fluoro-2-(methylsulfonyl)phenyl)-2-(3-methylmorpholino)pyrimidin-4-yl)phenyl)-3-(2-fluoroethyl)urea]
≥ 10 µM: PI3Kα | PI3Kβ | PI3K delta (PI3Kd); [1] | PI3K delta (PI3Kd); [2]

C[C@H]1COCCN1c1cc(-c2ccccc2S(C)(=O)=O)nc(-c2ccc(NC(=O)NC3CC3)cc2)n1 [Example 6, (S)-1-cyclopropyl-3-(4-(4-(3-methylmorpholino)-6-(2-(methylsulfonyl)phenyl)pyrimidin-2-yl)phenyl)urea]
≥ 10 µM: PI3Kα | PI3Kβ | PI3K delta (PI3Kd); [1] | PI3K delta (PI3Kd); [2]

O=C(Nc1ccncc1)Nc1ccc(-c2nccc(N3CC4CCC(C3)O4)n2)cc1 [Example 61, 1-(4-(4-(8-oxa-3-azabicyclo[3.2.1]octan-3-yl)pyrimidin-2-yl)phenyl)-3-(pyridin-4-yl)urea]
≥ 10 µM: PI3Kα | PI3Kβ | PI3K delta (PI3Kd); [1] | PI3K delta (PI3Kd); [2]

CCNC(=O)Nc1ccc(-c2cc(-c3cc(F)ccc3S(C)(=O)=O)nc(N3CCOC[C@@H]3C)n2)cc1 [Example 2, (S)-1-ethyl-3-(4-(6-(5-fluoro-2-(methylsulfonyl)phenyl)-2-(3-methylmorpholino)pyrimidin-4-yl)phenyl)urea]
≥ 10 µM: PI3Kα | PI3Kβ | PI3K delta (PI3Kd); [1] | PI3K delta (PI3Kd); [2]

C[C@H]1COCCN1c1ccnc(-c2ccc(NC(=O)Nc3ccncc3)cc2)n1 [Example 60, (S)-1-(4-(4-(3-methylmorpholino)pyrimidin-2-yl)phenyl)-3-(pyridin-4-yl)urea]
≥ 10 µM: PI3Kα | PI3Kβ | PI3K delta (PI3Kd); [1] | PI3K delta (PI3Kd); [2]

C[C@H]1COCCN1c1cc(-c2ccccn2)nc(-c2ccc(NC(=O)NC3CC3)cc2)n1 [Example 42, (S)-1-cyclopropyl-3-(4-(4-(3-methylmorpholino)-6-(pyridin-2-yl)pyrimidin-2-yl)phenyl)urea]
≥ 10 µM: PI3Kα | PI3Kβ | PI3K delta (PI3Kd); [1] | PI3K delta (PI3Kd); [2]

C[C@H]1COCCN1c1nc(-c2ccc(NC(=O)NCC(F)F)cc2)cc(-c2cc(F)ccc2S(C)(=O)=O)n1 [Example 47, (S)-1-(2,2-difluoroethyl)-3-(4-(6-(5-fluoro-2-(methylsulfonyl)phenyl)-2-(3-methylmorpholino)pyrimidin-4-yl)phenyl)urea]
≥ 10 µM: PI3Kα | PI3Kβ | PI3K delta (PI3Kd); [1] | PI3K delta (PI3Kd); [2]

C[C@H]1COCCN1c1cc(-c2ccccn2)nc(-c2ccc(NC(=O)NCCO)cc2)n1 [Example 43, (S)-1-(2-hydroxyethyl)-3-(4-(4-(3-methylmorpholino)-6-(pyridin-2-yl)pyrimidin-2-yl)phenyl)urea]
≥ 10 µM: PI3Kα | PI3Kβ | PI3K delta (PI3Kd); [1] | PI3K delta (PI3Kd); [2]

C[C@H]1COCCN1c1nc(-c2ccc(NC(=O)NC3CC3)cc2)cc(-c2cc(F)ccc2S(C)(=O)=O)n1 [Example 40, (S)-1-cyclopropyl-3-(4-(6-(5-fluoro-2-(methylsulfonyl)phenyl)-2-(3-methylmorpholino)pyrimidin-4-yl)phenyl)urea]
≥ 10 µM: PI3Kα | PI3Kβ | PI3K delta (PI3Kd); [1] | PI3K delta (PI3Kd); [2]
